In patent US9060955B2, “Transdermal therapeutic system with crystallization-inhibiting protective film (release liner)” (Bayer Intellectual Property GmbH, priority 2010, dated 2015):

Experiment: Solubility of GSD in the active-ingredient-containing matrix
Type: physicochemical

Solubility in the active-ingredient-containing matrix: ca. 2%
SMILES: C#C[C@]1(O)C=C[C@H]2[C@@H]3CCC4=CC(=O)CC[C@@H]4[C@H]3CC[C@@]21CC [GSD, gestodene]
